Test results reported in patent publication US10800791B2, “Triazole ACC inhibitors and uses thereof” (Gilead Apollo, LLC, priority 2015, dated 2020).
≈ marks a conversion by molar mass, not a printed value. Where two headings read alike, the source gives them in different places.

Columns and labels:
human (hACC2) = human (hACC2) (Homo sapiens, UniProt O00763); experiment: In vitro ACC inhibition assay (ADP-Glo), hACC2; type: biochemical; conditions: Table 2b, additional results, 5 nM ACC2, 20 μM ATP, 20 μM acetyl-CoA
Sequence of human (hACC2) (O00763 whole entry): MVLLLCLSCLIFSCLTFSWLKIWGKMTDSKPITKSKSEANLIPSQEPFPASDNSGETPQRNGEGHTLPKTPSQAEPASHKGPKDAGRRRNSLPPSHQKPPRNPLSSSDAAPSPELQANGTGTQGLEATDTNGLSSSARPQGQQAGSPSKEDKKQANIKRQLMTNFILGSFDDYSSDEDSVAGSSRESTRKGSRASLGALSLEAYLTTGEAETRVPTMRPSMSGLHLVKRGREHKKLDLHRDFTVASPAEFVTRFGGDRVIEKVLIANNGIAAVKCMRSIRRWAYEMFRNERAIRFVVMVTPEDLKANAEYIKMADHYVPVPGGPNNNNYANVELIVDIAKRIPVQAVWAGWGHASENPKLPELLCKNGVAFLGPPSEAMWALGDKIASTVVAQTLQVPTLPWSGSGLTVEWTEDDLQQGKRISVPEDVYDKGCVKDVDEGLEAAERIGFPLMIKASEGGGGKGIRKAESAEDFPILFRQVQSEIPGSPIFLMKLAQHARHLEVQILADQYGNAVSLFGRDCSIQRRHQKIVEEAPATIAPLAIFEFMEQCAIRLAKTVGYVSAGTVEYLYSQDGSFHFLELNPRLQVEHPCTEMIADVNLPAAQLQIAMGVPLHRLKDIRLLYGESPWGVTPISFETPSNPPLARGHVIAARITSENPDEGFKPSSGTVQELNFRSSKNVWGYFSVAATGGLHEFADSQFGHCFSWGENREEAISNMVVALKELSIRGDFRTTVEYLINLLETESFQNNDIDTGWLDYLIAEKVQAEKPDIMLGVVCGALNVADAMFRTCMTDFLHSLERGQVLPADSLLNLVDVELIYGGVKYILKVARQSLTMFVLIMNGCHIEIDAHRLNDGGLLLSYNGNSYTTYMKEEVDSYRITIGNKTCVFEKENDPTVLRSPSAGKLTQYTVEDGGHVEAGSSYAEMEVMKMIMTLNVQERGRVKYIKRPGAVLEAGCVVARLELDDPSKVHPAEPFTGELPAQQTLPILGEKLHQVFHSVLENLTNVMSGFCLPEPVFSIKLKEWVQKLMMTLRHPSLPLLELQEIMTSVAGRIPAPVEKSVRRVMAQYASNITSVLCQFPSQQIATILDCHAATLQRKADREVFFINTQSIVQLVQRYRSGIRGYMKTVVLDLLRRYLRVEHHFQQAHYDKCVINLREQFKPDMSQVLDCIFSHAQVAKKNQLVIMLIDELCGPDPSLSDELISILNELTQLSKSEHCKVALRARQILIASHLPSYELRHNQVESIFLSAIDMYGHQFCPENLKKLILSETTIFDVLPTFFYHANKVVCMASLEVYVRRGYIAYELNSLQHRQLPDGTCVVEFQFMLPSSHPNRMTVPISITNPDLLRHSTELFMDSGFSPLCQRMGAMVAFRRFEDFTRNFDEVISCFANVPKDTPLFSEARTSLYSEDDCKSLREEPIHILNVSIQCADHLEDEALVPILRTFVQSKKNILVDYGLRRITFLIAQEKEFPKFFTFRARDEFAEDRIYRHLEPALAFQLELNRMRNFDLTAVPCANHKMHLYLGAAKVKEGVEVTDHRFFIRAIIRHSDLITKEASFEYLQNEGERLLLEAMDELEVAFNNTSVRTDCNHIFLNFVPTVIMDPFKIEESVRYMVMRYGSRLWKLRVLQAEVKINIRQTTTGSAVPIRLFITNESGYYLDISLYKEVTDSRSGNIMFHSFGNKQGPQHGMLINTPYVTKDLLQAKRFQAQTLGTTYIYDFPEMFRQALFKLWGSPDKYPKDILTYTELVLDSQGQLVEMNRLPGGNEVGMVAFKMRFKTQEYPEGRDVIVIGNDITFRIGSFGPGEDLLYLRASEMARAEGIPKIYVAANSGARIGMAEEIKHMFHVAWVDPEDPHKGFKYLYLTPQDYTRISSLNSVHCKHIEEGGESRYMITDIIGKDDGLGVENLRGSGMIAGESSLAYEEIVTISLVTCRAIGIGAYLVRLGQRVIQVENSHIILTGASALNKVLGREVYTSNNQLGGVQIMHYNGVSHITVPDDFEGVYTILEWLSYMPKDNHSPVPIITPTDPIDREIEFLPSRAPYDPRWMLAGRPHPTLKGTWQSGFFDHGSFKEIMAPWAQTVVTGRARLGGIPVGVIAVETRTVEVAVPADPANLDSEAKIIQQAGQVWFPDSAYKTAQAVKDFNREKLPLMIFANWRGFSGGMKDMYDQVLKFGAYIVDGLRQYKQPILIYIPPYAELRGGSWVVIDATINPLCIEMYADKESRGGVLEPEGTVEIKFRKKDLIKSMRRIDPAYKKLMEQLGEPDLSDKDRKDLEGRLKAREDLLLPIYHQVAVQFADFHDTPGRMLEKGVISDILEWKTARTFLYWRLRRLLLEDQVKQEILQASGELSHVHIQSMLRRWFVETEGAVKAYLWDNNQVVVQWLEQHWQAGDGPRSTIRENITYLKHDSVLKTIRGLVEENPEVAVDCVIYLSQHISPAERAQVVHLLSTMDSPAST
Description: The detailed procedure is as follows. […] 10 μL ADP glo reagent was added. […] 20 μL kinase detection reagent was added.

C. albicans = experiment: Antifungal Activity Assay (broth microtiter MIC), C. albicans; type: cell-based, Candida albicans; conditions: Candida albicans, ATCC90028, 48 h
Summary of the method: (§1)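 Endpoint: lowest concentration visibly inhibiting growth relative to control after 48 h. Inoculum of 2.5×10^3 CFU/mL final in RPMI 1640+MOPS, prepared from overnight 35° C agar cultures; test compounds diluted in water to 128 μg/mL before plating.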

C. krusei = experiment: Antifungal Activity Assay (broth microtiter MIC), C. krusei; type: cell-based, Candida krusei; conditions: Pichia kudriavzevii, ATCC6258, 48 h
Summary of the method: as §1

C. parapsilosis = experiment: Antifungal Activity Assay (broth microtiter MIC), C. parapsilosis; type: cell-based, Candida parapsilosis; conditions: Lodderomyces parapsilosis, ATCC22019, 48 h
Summary of the method: as §1

Botrtyis cinerea (Bc) = experiment: Growth inhibition assay of fungal pathogens, Bc; type: cell-based; conditions: 48 h, growth inhibition at 48 hours vs 2% DMSO control
Summary of the method: (§2)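 Percent inhibition derived at 48 hours from OD600 and visual scores versus 2% DMSO control, with media+DMSO blank as background. Spore inocula in 17% V8 medium were sized from 48 h growth curves; compounds tested at final 50/10/2 or 2/0.4/0.08 ppm.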

[1] = test system: Collectotrichum graminicola (Cg); experiment: Growth inhibition assay of fungal pathogens, Cg; type: cell-based; conditions: 48 h, growth inhibition at 48 hours vs 2% DMSO control
Summary of the method: as §2

Diplodia maydis (Dm) = experiment: Growth inhibition assay of fungal pathogens, Dm; type: cell-based; conditions: Stenocarpella maydis, 48 h, growth inhibition at 48 hours vs 2% DMSO control
Summary of the method: as §2

[2] = test system: Fusarium moniliforme (Fm); experiment: Growth inhibition assay of fungal pathogens, Fm; type: cell-based; conditions: Fusarium verticillioides, 48 h, read-out: Concentration at 90% Inhibition Fm
Summary of the method: as §2

[3] = test system: Fusarium virguliforme (Fv); experiment: Growth inhibition assay of fungal pathogens, Fv; type: cell-based; conditions: 48 h
Summary of the method: as §2

[4] = test system: Phytophthora capsici (Pc); experiment: Growth inhibition assay of fungal pathogens, Pc; type: cell-based; conditions: 48 h
Summary of the method: as §2

Rhizoctonia solani (Rs) = experiment: Growth inhibition assay of fungal pathogens, Rs; type: cell-based; conditions: 48 h
Septoria tritici (St) = experiment: Growth inhibition assay of fungal pathogens, St; type: cell-based; conditions: Zymoseptoria tritici, 48 h, growth inhibition at 48 hours vs 2% DMSO control
Summary of the method: as §2

fungal (fACC2) = fungal (fACC2) (UniProt Q00955); conditions: read-out: fACC2 (in vitro ACC2 Inhibition Assay, IC50); Table 2b, additional results; ADP-Glo, 5 nM ACC2, 20 μM ATP, 20 μM acetyl-CoA
Sequence of fungal (fACC2) (Q00955 whole entry): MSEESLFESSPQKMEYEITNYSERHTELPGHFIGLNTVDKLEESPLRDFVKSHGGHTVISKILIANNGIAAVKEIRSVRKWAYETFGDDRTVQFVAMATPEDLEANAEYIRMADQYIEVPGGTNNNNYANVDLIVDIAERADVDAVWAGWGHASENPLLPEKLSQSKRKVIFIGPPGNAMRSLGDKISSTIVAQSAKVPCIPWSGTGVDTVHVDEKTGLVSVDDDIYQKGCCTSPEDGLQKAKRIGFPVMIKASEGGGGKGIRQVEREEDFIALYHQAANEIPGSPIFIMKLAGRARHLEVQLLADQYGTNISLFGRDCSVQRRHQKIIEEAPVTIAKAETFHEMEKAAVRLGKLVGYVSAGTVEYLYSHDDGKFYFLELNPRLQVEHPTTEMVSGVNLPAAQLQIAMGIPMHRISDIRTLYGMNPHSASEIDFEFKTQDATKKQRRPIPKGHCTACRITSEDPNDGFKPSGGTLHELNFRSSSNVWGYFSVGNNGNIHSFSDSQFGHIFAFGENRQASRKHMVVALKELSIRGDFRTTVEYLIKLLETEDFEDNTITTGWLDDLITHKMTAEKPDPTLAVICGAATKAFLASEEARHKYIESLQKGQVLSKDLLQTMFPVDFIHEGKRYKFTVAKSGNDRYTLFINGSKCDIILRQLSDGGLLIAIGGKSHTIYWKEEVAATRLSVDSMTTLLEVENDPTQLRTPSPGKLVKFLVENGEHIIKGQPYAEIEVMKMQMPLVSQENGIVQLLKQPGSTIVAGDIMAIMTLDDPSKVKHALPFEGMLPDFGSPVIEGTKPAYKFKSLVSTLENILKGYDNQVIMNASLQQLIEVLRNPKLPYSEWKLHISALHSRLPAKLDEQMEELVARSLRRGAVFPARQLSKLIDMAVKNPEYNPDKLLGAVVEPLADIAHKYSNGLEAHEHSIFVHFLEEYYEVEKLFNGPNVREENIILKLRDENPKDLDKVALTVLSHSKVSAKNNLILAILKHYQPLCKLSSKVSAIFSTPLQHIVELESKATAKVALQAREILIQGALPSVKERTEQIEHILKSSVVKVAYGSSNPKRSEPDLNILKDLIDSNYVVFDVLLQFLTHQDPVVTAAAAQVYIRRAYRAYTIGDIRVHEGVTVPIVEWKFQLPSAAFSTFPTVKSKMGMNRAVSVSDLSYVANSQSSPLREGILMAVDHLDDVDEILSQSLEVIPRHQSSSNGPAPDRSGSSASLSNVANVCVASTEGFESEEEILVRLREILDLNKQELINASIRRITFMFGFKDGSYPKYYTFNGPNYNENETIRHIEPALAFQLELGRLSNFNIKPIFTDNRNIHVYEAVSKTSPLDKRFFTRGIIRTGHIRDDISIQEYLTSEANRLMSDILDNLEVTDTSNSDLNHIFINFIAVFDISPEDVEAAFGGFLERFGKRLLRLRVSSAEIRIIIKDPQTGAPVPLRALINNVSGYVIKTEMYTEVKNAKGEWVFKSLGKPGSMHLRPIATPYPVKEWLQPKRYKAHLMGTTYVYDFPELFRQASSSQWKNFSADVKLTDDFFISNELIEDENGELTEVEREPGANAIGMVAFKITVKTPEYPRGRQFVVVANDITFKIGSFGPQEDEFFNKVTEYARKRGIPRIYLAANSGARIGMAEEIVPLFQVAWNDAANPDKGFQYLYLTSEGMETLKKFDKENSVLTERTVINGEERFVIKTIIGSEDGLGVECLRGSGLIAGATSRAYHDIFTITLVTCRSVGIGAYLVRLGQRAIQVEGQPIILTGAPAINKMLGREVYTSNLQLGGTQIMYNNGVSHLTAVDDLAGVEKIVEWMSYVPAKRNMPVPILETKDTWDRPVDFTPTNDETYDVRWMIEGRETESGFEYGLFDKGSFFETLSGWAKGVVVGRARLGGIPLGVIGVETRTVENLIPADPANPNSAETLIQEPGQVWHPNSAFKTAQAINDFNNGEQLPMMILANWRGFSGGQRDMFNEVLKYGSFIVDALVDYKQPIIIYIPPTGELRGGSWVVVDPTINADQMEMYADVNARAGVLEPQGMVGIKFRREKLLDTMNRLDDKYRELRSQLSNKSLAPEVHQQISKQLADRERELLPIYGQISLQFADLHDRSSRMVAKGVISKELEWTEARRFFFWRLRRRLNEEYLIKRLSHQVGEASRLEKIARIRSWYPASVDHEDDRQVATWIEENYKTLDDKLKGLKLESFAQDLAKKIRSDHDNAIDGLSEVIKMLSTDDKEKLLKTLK

[5] = Table 3b (additional results), ATCC 90028, 3 replicates, MIC recorded at 48 h, read-out: MIC, C. albicans ATCC 90028
[6] = Table 3b (additional results), ATCC 6258, 3 replicates, MIC recorded at 48 h, read-out: MIC, C. krusei ATCC 6258
[7] = Table 3b (additional results), ATCC 22019, 3 replicates, MIC recorded at 48 h, read-out: MIC, C. parapsilosis ATCC 22019
[8] = Botrtyis cinerea, read-out: Concentration at 90% Inhibition Bc
[9] = Collectotrichum graminicola, read-out: Concentration at 90% Inhibition Cg
[10] = Diplodia maydis, read-out: Concentration at 90% Inhibition Dm
[11] = Fusarium moniliforme, growth inhibition at 48 hours vs 2% DMSO control
[12] = growth inhibition at 48 hours vs 2% DMSO control, read-out: Concentration at 90% Inhibition Fv
[13] = growth inhibition at 48 hours vs 2% DMSO control, read-out: Concentration at 90% Inhibition Pc
[14] = mycelial plugs, growth inhibition at 48 hours vs 2% DMSO control, read-out: Concentration at 90% Inhibition Rs
[15] = Septoria tritici, read-out: Concentration at 90% Inhibition St

Molecule COc1ccc(F)cc1[C@H](Cn1c(=O)n([C@H](C)C(=O)NC(C)C)c(=O)c2c(C)c(-n3nccn3)sc21)OCC(C)(C)C#N [Compound I-210] has an IC50 (human (hACC2)) of 1 to 5 nM, an MIC (C. albicans; [5]) of 1.01 to 2 µg/mL (≈ 1.65 to 3.27 µM) and an MIC (C. krusei; [6]) of 2.01 to 4 µg/mL (≈ 3.29 to 6.54 µM). It also gave an MIC (C. parapsilosis; [7]) of 1.01 to 2 µg/mL (≈ 1.65 to 3.27 µM), an IC90 (Botrtyis cinerea (Bc); [8]) of 0.4 µg/mL (≈ 0.654 µM) and an IC90 [1, 9] of 0.4 µg/mL (≈ 0.654 µM). For the same molecule, the IC90 (Diplodia maydis (Dm); [10]) was 0.4 µg/mL (≈ 0.654 µM), the IC90 [2, 11] was 0.08 µg/mL (≈ 0.131 µM) and the IC90 [3, 12] was 0.4 µg/mL (≈ 0.654 µM). For the same molecule, the IC90 [4, 13] was > 50 µg/mL, the IC90 (Rhizoctonia solani (Rs); [14]) was 0.08 µg/mL (≈ 0.131 µM) and the IC90 (Septoria tritici (St); [15]) was 2 µg/mL (≈ 3.27 µM). It also gave an IC50 (fungal (fACC2)) of 0.3 to 1 nM.

Work on COc1ccc(F)cc1[C@H](Cn1c(=O)n(C(C)(C)C(=O)NC(C)C)c(=O)c2c(C)c(-n3nccn3)sc21)OCCS(C)(=O)=O [Compound I-248] yielded an IC50 (human (hACC2)) of 10 to 40 nM, an MIC (C. albicans; read-out: MIC, C. albicans ATCC 90028, Table 3b (additional results), 3 replicates, MIC recorded at 48 h) of 1.01 to 2 µg/mL (≈ 1.55 to 3.07 µM) and an MIC (C. krusei; read-out: MIC, C. krusei ATCC 6258, Table 3b (additional results), 3 replicates, MIC recorded at 48 h) of 1.01 to 2 µg/mL (≈ 1.55 to 3.07 µM). It also gave an MIC (C. parapsilosis; read-out: MIC, C. parapsilosis ATCC 22019, Table 3b (additional results), 3 replicates, MIC recorded at 48 h) of 1.01 to 2 µg/mL (≈ 1.55 to 3.07 µM), an IC90 (Botrtyis cinerea (Bc); read-out: Concentration at 90% Inhibition Bc, Botrtyis cinerea) of 2 µg/mL (≈ 3.07 µM) and an IC90 ([1]; read-out: Concentration at 90% Inhibition Cg, Collectotrichum graminicola) of 0.4 µg/mL (≈ 0.615 µM). The IC90 (Diplodia maydis (Dm); read-out: Concentration at 90% Inhibition Dm, Diplodia maydis) was 0.4 µg/mL (≈ 0.615 µM), the IC90 [2] was 0.4 µg/mL (≈ 0.615 µM) and the IC90 ([3]; read-out: Concentration at 90% Inhibition Fv, Fusarium virguliforme, growth inhibition at 48 hours vs 2% DMSO control) was 2 µg/mL (≈ 3.07 µM). For the same molecule, the IC90 ([4]; read-out: Concentration at 90% Inhibition Pc, Phytophthora capsici, growth inhibition at 48 hours vs 2% DMSO control) was 10 µg/mL (≈ 15.4 µM), the IC90 (Rhizoctonia solani (Rs); read-out: Concentration at 90% Inhibition Rs, Rhizoctonia solani, mycelial plugs, growth inhibition at 48 hours vs 2% DMSO control) was 0.08 µg/mL (≈ 0.123 µM) and the IC90 (Septoria tritici (St); read-out: Concentration at 90% Inhibition St, Septoria tritici) was > 50 µg/mL. It also gave an IC50 (fungal (fACC2)) of 0.3 to 1 nM.

With COc1ccc(F)cc1[C@H](Cn1c(=O)n(C(C)(C)C(=O)NC(C)C)c(=O)c2c(C)c(-n3nccn3)sc21)OC(=O)CO [Compound I-262] the IC50 (human (hACC2)) was > 40 nM, the MIC (C. albicans; [5]) was 0.25 to 1 µg/mL (≈ 0.415 to 1.66 µM) and the MIC (C. krusei; [6]) was 0.06 to 0.249 µg/mL (≈ 0.0996 to 0.413 µM). The MIC (C. parapsilosis; [7]) was 1.01 to 2 µg/mL (≈ 1.68 to 3.32 µM), the IC90 (Botrtyis cinerea (Bc); [8]) was > 50 µg/mL and the IC90 [1, 9] was > 50 µg/mL. For the same molecule, the IC90 (Diplodia maydis (Dm); [10]) was > 50 µg/mL, the IC90 [2, 11] was 10 µg/mL (≈ 16.6 µM) and the IC90 [3, 12] was 10 µg/mL (≈ 16.6 µM). The IC90 [4, 13] was > 50 µg/mL, the IC90 (Rhizoctonia solani (Rs); [14]) was > 50 µg/mL and the IC90 (Septoria tritici (St); [15]) was > 50 µg/mL. For the same molecule, the IC50 (fungal (fACC2)) was 5 to 10 nM.

Molecule COc1ccc(F)cc1[C@H](Cn1c(=O)n([C@@H](C)C(=O)NC(C)C)c(=O)c2c(C)c(-n3nccn3)sc21)OCC(C)(C)C#N [Compound I-211] has an IC50 (human (hACC2)) of 10 to 40 nM, an MIC (C. albicans; [5]) of 1.01 to 2 µg/mL (≈ 1.65 to 3.27 µM) and an MIC (C. krusei; [6]) of 2.01 to 4 µg/mL (≈ 3.29 to 6.54 µM). The MIC (C. parapsilosis; [7]) was 1.01 to 2 µg/mL (≈ 1.65 to 3.27 µM), the IC90 (Botrtyis cinerea (Bc); [8]) was 2 µg/mL (≈ 3.27 µM) and the IC90 [1, 9] was > 50 µg/mL. The IC90 (Diplodia maydis (Dm); [10]) was 10 µg/mL (≈ 16.3 µM), the IC90 [2, 11] was 2 µg/mL (≈ 3.27 µM) and the IC90 [3, 12] was > 50 µg/mL. For the same molecule, the IC90 [4, 13] was > 50 µg/mL, the IC90 (Rhizoctonia solani (Rs); [14]) was > 50 µg/mL and the IC90 (Septoria tritici (St); [15]) was > 50 µg/mL. The IC50 (fungal (fACC2)) was 1 to 5 nM.

With CCNC(=O)C(C)(C)n1c(=O)c2c(C)c(-n3nccn3)sc2n(C[C@@H](OC(C)=O)c2cc(F)ccc2OC)c1=O [Compound I-260] the IC50 (human (hACC2)) was 10 to 40 nM, the MIC (C. albicans; [5]) was 2.01 to 4 µg/mL (≈ 3.51 to 6.99 µM) and the MIC (C. krusei; [6]) was 1.01 to 2 µg/mL (≈ 1.76 to 3.49 µM). It also gave an MIC (C. parapsilosis; [7]) of 2.01 to 4 µg/mL (≈ 3.51 to 6.99 µM), an IC90 (Botrtyis cinerea (Bc); [8]) of 2 µg/mL (≈ 3.49 µM) and an IC90 [1, 9] of 10 µg/mL (≈ 17.5 µM). For the same molecule, the IC90 (Diplodia maydis (Dm); [10]) was 10 µg/mL (≈ 17.5 µM), the IC90 [2, 11] was 0.4 µg/mL (≈ 0.699 µM) and the IC90 [3, 12] was 2 µg/mL (≈ 3.49 µM). The IC90 [4, 13] was > 50 µg/mL, the IC90 (Rhizoctonia solani (Rs); [14]) was 2 µg/mL (≈ 3.49 µM) and the IC90 (Septoria tritici (St); [15]) was > 50 µg/mL. The IC50 (fungal (fACC2)) was 0.3 to 1 nM.

COc1ccc(F)cc1[C@](C)(Cn1c(=O)n(C(C)(C)C(=O)NC(C)C)c(=O)c2c(C)c(-n3nccn3)sc21)OCCC#N [Compound I-229] was tested, and the IC50 (human (hACC2)) was > 40 nM, the MIC (C. albicans; [5]) was 0.25 to 1 µg/mL (≈ 0.409 to 1.63 µM) and the MIC (C. krusei; [6]) was 0.25 to 1 µg/mL (≈ 0.409 to 1.63 µM). For the same molecule, the MIC (C. parapsilosis; [7]) was 1.01 to 2 µg/mL (≈ 1.65 to 3.27 µM), the IC90 (Botrtyis cinerea (Bc); [8]) was 0.4 µg/mL (≈ 0.654 µM) and the IC90 [1, 9] was 2 µg/mL (≈ 3.27 µM). The IC90 (Diplodia maydis (Dm); [10]) was > 50 µg/mL, the IC90 [2, 11] was 0.08 µg/mL (≈ 0.131 µM) and the IC90 [3, 12] was 0.4 µg/mL (≈ 0.654 µM). The IC90 [4, 13] was > 50 µg/mL, the IC90 (Rhizoctonia solani (Rs); [14]) was 2 µg/mL (≈ 3.27 µM) and the IC90 (Septoria tritici (St); [15]) was > 50 µg/mL. It also gave an IC50 (fungal (fACC2)) of 1 to 5 nM.
